Experiments:
MMP-2 = experiment: Lung tissue study: MMP-2 released by human lung tissue in vitro (ELISA); format: cell-based; settings: 24 hours; for MMP-2 % of IL-1: 100 U/ml IL-1 stimulated; for MMP-2 % of control: unstimulated fragments
Description: (§1) This study was done to assess the effects of doxycycline on the release of matrix metalloproteinases by human lung tissue in vitro.
(§2) On the following day, 2-3 fragments (total weight 50 mg) were placed in 0.8 ml of culture buffer and 0.1 ml of doxycycline (to give a final concentration of 10^−4-10^−8M) or a buffer control was added.
(§3) After one hours incubation at 37° C., the fragments were treated with either 0.1 ml of either a buffer control (unstimulated fragments) or 1000 U/ml interleukin-1 (final concentration of 100 U/ml IL-1). The fragments were then incubated for 24 hours and the supernatant recovered; the tissue was weighed and stored at −70° C.
(§4) The MMPs and TIMPs released into the supematant were measured using commercial ELISAs (Amersham); values were expressed as ng of MMP/TIMP per mg of lung tissue.
MMP-2 levels are analysed by Elisa plates (Code No. RPN2617) from Amersham Pharmecia Biotech UK Limited, Amersham Place, Little Chalfont, BUCKS HP7 9NA.
(§5) The Elisa is run as per manufacturer's instructions.
This Elisa is specific for proMMP-2; recognising free proMMP-2 and MMP-2 complexed to TIMP-2, but not the active form of MMP-2. No cross-reactivity with MMP-1, 3, 7, 8, 9 and MT1-MMP.

[1] = route of administration that avoids first-pass metabolism; cited from earlier work
MMP-9 [2] = experiment: Human study in COPD subjects: MMP-9 levels (ELISA); format: in vivo; settings: for MMP-9 % of control: capsules 50, 100, 200 mg ascending, 3 days each, 4-day wash out
Description: (§6) This was an open-label, ascending dose, cross-over study. Suitable subjects with chronic obstructive pulmonary disease (COPD) had their respiratory function assessed at baseline and provided sputum and blood for MMP and doxycycline levels. They then received 50 mg, 100 mg and 200 mg of doxycycline capsules for a period of 3 days in ascending order. At the end of each treatment period a further assessment of respiratory function was performed, and a sputum and blood sample was analysed for MMP, TIMP-1 and doxycycline levels. There was a 4-day wash out period between each treatment period of the study. The MMPs and TIMPs released were measured using commercial ELISAs as detailed above for the lung tissue study.

TIMP-1 [3] = experiment: Human study in COPD subjects: TIMP-1 levels (ELISA); format: in vivo; settings: for TIMP-1 % of control: capsules 50, 100, 200 mg ascending, 3 days each, 4-day wash out
Description: as §6

MMP-1 = experiment: Lung tissue study: MMP-1 released by human lung tissue in vitro (ELISA); format: cell-based; settings: 24 hours; for MMP-1 % of IL-1: 100 U/ml IL-1 stimulated; for MMP-1 % of control: unstimulated fragments
Description: as §1, §2, §3, §4
MMP-1 levels are analysed by Elisa plates (Code No. RPN2610) from Amersham Pharmacia Biotech UK Limited, Amersham Place, Little Chalfont, BUCKS HP7 9NA.
as §5
This Elisa is specific for total MMP-1; recognising pro MMP-1, active MMP-1 and MMP-1/TIMP-1 complex.

[4] = oral route; cited from earlier work
TIMP-1 [5] = experiment: Lung tissue study: TIMP-1 released by human lung tissue in vitro (ELISA); format: cell-based; settings: 24 hours; for TIMP-1 % of IL-1: 100 U/ml IL-1 stimulated; for TIMP-1 % of control: unstimulated fragments
Description: as §1, §2, §3, §4

MMP-9 [6] = experiment: Lung tissue study: MMP-9 released by human lung tissue in vitro (ELISA); format: cell-based; settings: 24 hours; for MMP-9 % of IL-1: 100 U/ml IL-1 stimulated; for MMP-9 % of control: unstimulated fragments
Description: as §1, §2, §3, §4

[7] = Mean of study days 4, 8, 11, 15, 18, COPD subjects

C[C@H]1c2cccc(O)c2C(=O)C2=C(O)[C@]3(O)C(=O)C(C(N)=O)=C(O)[C@@H](N(C)C)[C@@H]3[C@@H](O)[C@@H]21 [doxycycline]
MMP-2 % of IL-1 (MMP-2; 10^-4 M): 49.23% | MMP-2 % of control (MMP-2; 10^-4 M): 34.34% | MMP-2 % of IL-1 (MMP-2; 10^-6 M): 86.86% | MMP-2 % of control (MMP-2; 10^-6 M): 219.33% | MMP-2 % of IL-1 (MMP-2; 10^-8 M): 95.75% | MMP-2 % of control (MMP-2; 10^-8 M): 101.47% | lung concentration relative to the level in plasma [1]: up to 10 times | MMP-9 % of control (MMP-9 [2]; Day of Study 4, COPD subjects): 39.43% | MMP-9 % of control (MMP-9 [2]; Day of Study 8, COPD subjects): 12.85% | MMP-9 % of control (MMP-9 [2]; Day of Study 11, COPD subjects): 29.17% | MMP-9 % of control (MMP-9 [2]; Day of Study 15, COPD subjects): 22.41% | MMP-9 % of control (MMP-9 [2]; Day of Study 18, COPD subjects): 29.03% | MMP-9 % of control, Mean (MMP-9 [2]; [7]): 26.58% | reduction in MMP-9 activity (MMP-9 [2]; human patient study): 73% | TIMP-1 % of control (TIMP-1 [3]; Day of Study 4, COPD subjects): 116.24% | TIMP-1 % of control (TIMP-1 [3]; Day of Study 15, COPD subjects): 974.24% | TIMP-1 % of control, Mean (TIMP-1 [3]; [7]): 978.67% | increase in TIMP-1 (TIMP-1 [3]; human patient study): 10 fold | upregulation of TIMP-1 in COPD sputum, % of untreated levels (TIMP-1 [3]; repeated dosing at 100 mg once daily): about 1000% | MMP-1 % of IL-1 (MMP-1; 10^-4 M): 14.75% | MMP-1 % of control (MMP-1; 10^-4 M): 24.05% | MMP-1 % of IL-1 (MMP-1; 10^-6 M): 61.47% | MMP-1 % of control (MMP-1; 10^-6 M): 84.10% | MMP-1 % of IL-1 (MMP-1; 10^-8 M): 51.87% | MMP-1 % of control (MMP-1; 10^-8 M): 76.50% | protein binding [4]: very highly protein-bound | TIMP-1 % of IL-1 (TIMP-1 [5]; 10^-4 M): 75.47% | TIMP-1 % of control (TIMP-1 [5]; 10^-4 M): 44.49% | TIMP-1 % of IL-1 (TIMP-1 [5]; 10^-6 M): 508.92% | TIMP-1 % of control (TIMP-1 [5]; 10^-6 M): 182.40% | TIMP-1 % of IL-1 (TIMP-1 [5]; 10^-8 M): 461.92% | TIMP-1 % of control (TIMP-1 [5]; 10^-8 M): 172.02% | MMP-9 % of IL-1 (MMP-9 [6]; 10^-4 M): 51.04% | MMP-9 % of control (MMP-9 [6]; 10^-4 M): 39.36% | MMP-9 % of IL-1 (MMP-9 [6]; 10^-6 M): 99.29% | MMP-9 % of control (MMP-9 [6]; 10^-6 M): 116.84% | MMP-9 % of IL-1 (MMP-9 [6]; 10^-8 M): 127.04% | MMP-9 % of control (MMP-9 [6]; 10^-8 M): 113.57%

From US20030099600A1, “Metalloproteinase inhibitors for the treatment of respiratory diseases” (priority 2000, published 2003)
